Assay [1] deals with T1, full length recombinant Pim-1 protein (Homo sapiens, UniProt P11309).
T1 construct: by full length recombinant Pim-1, Pim-2, or Pim-3 protein; hexahistidine tag followed by a thrombin cleavage site (N); made in house; host or cells: Sf9 (baculovirus) or E. coli (pET28)
Nature of the assay: Pim-1 enzyme assay (HTRF, phosphorylation of biotinylated-BAD (S112) peptide). The assay is classed as biochemical. The settings on record: enzyme assay, Pim-1; read-out: Pim_1_IC50. The essentials: (§1)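 Full-length human Pim-1 or Pim-2 (His6-tagged, Sf9 or E. coli expressed, Ni and Superdex 75 purified) phosphorylates biotinylated BAD (S112) peptide in 60 mM Hepes pH 7.0, 0.05% BSA, 2 mM DTT. Stopped with 3 mM EDTA; HTRF read with Eu anti-phospho-BAD and streptavidin-APC. IC50 from 4-parameter logistic fit of percent of control.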

In assay [2] the target is T2, Pim-2 stably transfected into the U2OS human osteogenic sarcoma line (Homo sapiens, UniProt Q9P1W9).
T2 construct: expressed in transfected cells; host or cells: U2OS human osteogenic sarcoma line
The experiment in a line: Pim cell assay, phospho-BAD normalized against total BAD, U2OS stably transfected with Pim-2. Further: high dose 31.6 µM. Particulars: read-out: Pim2_Cell_IC50. The assay is classed as cell-based. In a few lines: (§2)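 U2OS cells stably expressing Pim-1 or Pim-2 were plated overnight at 37 °C, then dosed over a 10-point curve (final 0.3% DMSO; DMSO alone as high control). Lysates assayed for phospho- and total BAD by Meso Scale immunoassay; % phosphoprotein = (2×phospho)/(phospho+total)×100.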

The target of assay [3] is T3, full length recombinant Pim-2 protein (Homo sapiens, UniProt Q9P1W9).
T3 construct: by full length recombinant Pim-1, Pim-2, or Pim-3 protein; hexahistidine tag followed by a thrombin cleavage site (N); made in house; host or cells: Sf9 (baculovirus) or E. coli (pET28)
The experiment in a line: Pim-2 enzyme assay (HTRF, phosphorylation of biotinylated-BAD (S112) peptide). The assay is classed as biochemical. Particulars: enzyme assay, Pim-2; read-out: Pim2_IC50. The essentials: as §1
(In general: In TR-FRET formats the signal depends on donor and acceptor labels being close together.)

Assay [4] deals with T4, Pim-1 stably transfected into the U2OS human osteogenic sarcoma line (Homo sapiens, UniProt P11309).
T4 construct: expressed in transfected cells; host or cells: U2OS human osteogenic sarcoma line
Nature of the assay: Pim cell assay, phospho-BAD normalized against total BAD, U2OS stably transfected with Pim-1. The assay is classed as cell-based. Particulars: read-out: Pim1_Cell_IC50. The essentials: as §2

The target in assay [5] is T5, full length recombinant Pim-3 protein (Homo sapiens, UniProt Q86V86).
T5 construct: by full length recombinant Pim-1, Pim-2, or Pim-3 protein; purchased Millipore (UK)
Nature of the assay: Pim-3 enzyme assay (HTRF, phosphorylation of biotinylated-BAD (S112) peptide). Particulars: read-out: Pim3 IC50. The assay is classed as biochemical. In a few lines:
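Full-length recombinant Pim-3 phosphorylates biotinylated BAD (S112) peptide in 60 mM Hepes pH 7.0, 0.05% BSA, 2 mM DTT; reaction stopped with 3 mM EDTA. Phospho-BAD detected by HTRF (Eu anti-phospho-BAD S112 antibody, streptavidin-APC). IC50 from percent-of-control values fitted to a 4-parameter logistic model.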

Where [6] appears, read: U2OS cells stably transfected with Pim-2, phospho-BAD, high dose […].
The mark [7] stands for this setting: U2OS cells stably transfected with Pim-1, phospho-BAD, high dose […].

Like-named read-outs stand apart in the source and are kept apart here.

The text below walks through data of patent US9090593B2, “Bicyclic compounds as Pim inhibitors” (AMGEN INC., priority 2010, dated 2015).

T3 sequence (Q9P1W9 whole entry): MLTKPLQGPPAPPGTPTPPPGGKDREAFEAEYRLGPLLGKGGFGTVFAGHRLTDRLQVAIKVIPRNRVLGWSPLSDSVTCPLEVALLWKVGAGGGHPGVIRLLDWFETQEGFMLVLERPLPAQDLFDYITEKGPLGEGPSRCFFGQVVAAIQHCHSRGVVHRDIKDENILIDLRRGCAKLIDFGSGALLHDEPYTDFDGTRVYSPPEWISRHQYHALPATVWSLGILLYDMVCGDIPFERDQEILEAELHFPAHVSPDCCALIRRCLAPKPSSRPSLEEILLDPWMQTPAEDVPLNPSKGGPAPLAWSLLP
T2 sequence (Q9P1W9 whole entry): as above
T1 sequence (P11309 whole entry): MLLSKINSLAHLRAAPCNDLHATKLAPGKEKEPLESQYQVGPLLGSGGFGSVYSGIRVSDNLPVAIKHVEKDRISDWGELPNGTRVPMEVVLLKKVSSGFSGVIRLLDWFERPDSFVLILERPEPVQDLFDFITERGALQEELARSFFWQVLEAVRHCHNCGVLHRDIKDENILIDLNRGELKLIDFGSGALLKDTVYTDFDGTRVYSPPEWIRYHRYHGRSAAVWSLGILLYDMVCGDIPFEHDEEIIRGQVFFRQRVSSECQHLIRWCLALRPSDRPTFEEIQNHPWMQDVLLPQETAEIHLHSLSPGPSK
T4 sequence (P11309 whole entry): as above

With `CC(C)Oc1cncc(-c2ccc3[nH]cc(-c4cncc(O[C@@H]5CCCNC5)n4)c3c2)n1` [Example 213, 5-(6-(1-methylethoxy)-2-pyrazinyl)-3-(6-((3R)-3-piperidinyloxy)-2-pyrazinyl)-1H-indole], the IC50 in assay [1] is 22 nM; in assay [2] it was 18900 nM; in assay [3], 343 nM; in assay [4], 1370 nM; in assay [5], 40 nM.
Turning to `NC1CCN(c2cncc(-c3n[nH]c4ccc(-c5cccc(F)c5)cc34)n2)CC1` [Example 7, 1-(6-(5-(3-Fluorophenyl)-1H-indazol-3-yl)pyrazin-2-yl)piperidin-4-amine], the IC50 in assay [1] was 4 nM; in assay [2] (setting [6]) it was over 31600 nM; in assay [3] it was 25 nM; in assay [4] (setting [7]), 748 nM; in assay [5], 3 nM.
Taken in the same sequence, the figures for `C[C@H]1CCNC[C@@H]1Oc1cncc(-c2n[nH]c3ccc(-c4c(F)cccc4F)cc23)n1` [Example 195, 5-(2,6-difluorophenyl)-3-(6-(((3R,4S)-4-methyl-3-piperidinyl)oxy)-2-pyrazinyl)-1H-indazole] were 4 nM, 7580 nM, 15 nM, 211 nM and 7 nM.
For the compound `CC(C)Oc1cncc(-c2ccc3[nH]cc(-c4csc(-n5ccnc5)n4)c3c2)n1` [Example 228, 3-(2-(1H-imidazol-1-yl)-1,3-thiazol-4-yl)-5-(6-(1-methylethoxy)-2-pyrazinyl)-1H-indole], the IC50 in assay [1] was 43 nM; in assay [2] it was over 31600 nM; in assay [3], 1410 nM; in assay [4], 3420 nM; in assay [5] it was 42 nM.
`COc1cccc(-c2ccc3[nH]nc(-c4cncc(O[C@@H]5CCCNC5)n4)c3c2)c1F` [Example 131, 5-(2-fluoro-3-methoxyphenyl)-3-(6-((3R)-3-piperidinyloxy)-2-pyrazinyl)-1H-indazole]: the IC50 worked out at 2 nM in assay [1]; 8910 nM in assay [2] (setting [6]); 15 nM in assay [3]; 151 nM in assay [4] (setting [7]); 5 nM in assay [5].
Taken in the same sequence, the figures for `CC(C)Oc1cccc(-c2ccc3[nH]nc(-c4cncc(N5CCC(N)CC5)n4)c3c2)n1` [Example 64, 1-(6-(5-(6-(1-methylethoxy)-2-pyridinyl)-1H-indazol-3-yl)-2-pyrazinyl)-4-piperidinamine] were 20 nM, over 31600 nM, 150 nM, 3020 nM and 16 nM.
In the same order, the values of `NC1CCN(c2cncc(-c3n[nH]c4ccc(-c5ccc6cc[nH]c6n5)cc34)n2)CC1` [Example 95, 1-(6-(5-(1H-pyrrolo[2,3-b]pyridin-6-yl)-1H-indazol-3-yl)-2-pyrazinyl)-4-piperidinamine] are 5 nM, over 31600 nM, 82 nM, 384 nM and 3 nM.
With `COc1cncc(-c2ccc3[nH]nc(-c4cncc(O[C@@H]5CCCNC5)n4)c3c2)c1` [Example 114, 5-(5-methoxy-3-pyridinyl)-3-(6-((3R)-3-piperidinyloxy)-2-pyrazinyl)-1H-indazole], the IC50 was determined as 6 nM in assay [1]; 8500 nM in assay [2] (setting [6]); 77 nM in assay [3]; 172 nM in assay [4] (setting [7]); 12 nM in assay [5].
In the same order, the values of `NC1CCN(c2cncc(-c3n[nH]c4ccc(-c5cnc6ccccc6c5)cc34)n2)CC1` [Example 55, 1-(6-(5-(3-quinolinyl)-1H-indazol-3-yl)-2-pyrazinyl)-4-piperidinamine] are 1 nM, over 31600 nM, 51 nM, 287 nM and 1 nM.
Taken in the same sequence, the figures for `Fc1cccc(F)c1-c1ccc2[nH]cc(-c3cncc(N[C@@H]4CCNC4)n3)c2c1` [Example 208, 6-(5-(2,6-difluorophenyl)-1H-indol-3-yl)-N-((3R)-3-pyrrolidinyl)-2-pyrazinamine] were 2 nM, 4620 nM, 15 nM, 381 nM and 4 nM.
With `Fc1cccc(F)c1-c1ccc2[nH]cc(-c3nccc(O[C@@H]4CCCNC4)n3)c2c1` [Example 209, 5-(2,6-difluorophenyl)-3-(4-((3R)-3-piperidinyloxy)-2-pyrimidinyl)-1H-indole], the IC50 was determined as 36 nM in assay [1]; 30300 nM in assay [2]; 89 nM in assay [3]; 1180 nM in assay [4]; 49 nM in assay [5].
Turning to `O=C(NC1CC1)c1cccc(-c2ccc3[nH]nc(-c4cncc(O[C@@H]5CCCNC5)n4)c3c2)c1` [Example 132, N-cyclopropyl-3-(3-(6-((3R)-3-piperidinyloxy)-2-pyrazinyl)-1H-indazol-5-yl)benzamide], the IC50 turned out to be 8 nM in assay [1]; 3050 nM in assay [2] (setting [6]); 14 nM in assay [3]; 245 nM in assay [4] (setting [7]); 14 nM in assay [5].
With `NC1CCN(c2cncc(-c3n[nH]c4ccc(-c5cncc(F)c5)cc34)n2)CC1` [Example 85, 1-(6-(5-(5-fluoro-3-pyridinyl)-1H-indazol-3-yl)-2-pyrazinyl)-4-piperidinamine], the IC50 came to 5 nM in assay [1]; 7020 nM in assay [2] (setting [6]); 36 nM in assay [3]; 176 nM in assay [4] (setting [7]); 1 nM in assay [5].
Taken in the same sequence, the figures for `CCN(CC)C(=O)c1ccc(F)c(-c2ccc3[nH]nc(-c4cncc(N5CCC(N)CC5)n4)c3c2)c1` [Example 46, 3-(3-(6-(4-amino-1-piperidinyl)-2-pyrazinyl)-1H-indazol-5-yl)-N,N-diethyl-4-fluorobenzamide] were 20 nM, 7030 nM, 49 nM, 959 nM and 22 nM.
For the compound `NC1CCN(c2cncc(-c3n[nH]c4ccc(-c5ccc6scnc6c5)cc34)n2)CC1` [Example 53, 1-(6-(5-(1,3-benzothiazol-5-yl)-1H-indazol-3-yl)-2-pyrazinyl)-4-piperidinamine], the IC50 was determined as 2 nM in assay [1]; 9930 nM in assay [2] (setting [6]); 17 nM in assay [3]; 280 nM in assay [4] (setting [7]); 1 nM in assay [5].
In the same order, the values of `NC1CCN(c2cncc(-c3n[nH]c4ccc(N5CCCCC5)cc34)n2)CC1` [Example 90, 1-(6-(5-(1-piperidinyl)-1H-indazol-3-yl)-2-pyrazinyl)-4-piperidinamine] are 23 nM, over 31600 nM, 196 nM, 747 nM and 40 nM.
In the same order, the values of `Fc1ccccc1-c1ccc2[nH]nc(-c3cncc(O[C@@H]4CCCNC4)n3)c2c1` [Example 133, 5-(2-fluorophenyl)-3-(6-((3R)-3-piperidinyloxy)-2-pyrazinyl)-1H-indazole] are 5 nM, 7840 nM, 17 nM, 435 nM and 6 nM.
Taken in the same sequence, the figures for `N[C@@H]1CCN(c2cncc(-c3c[nH]c4ccc(-c5c(F)cccc5F)cc34)n2)C1` [Example 212, (3R)-1-(6-(5-(2,6-difluorophenyl)-1H-indol-3-yl)-2-pyrazinyl)-3-pyrrolidinamine] were 15 nM, over 31600 nM, 185 nM, 997 nM and 18 nM.
With `Cn1c(=O)cc(-c2ccc3[nH]nc(-c4cncc(N5CCC(N)CC5)n4)c3c2)c2ccccc21` [Example 50, 4-(3-(6-(4-amino-1-piperidinyl)-2-pyrazinyl)-1H-indazol-5-yl)-1-methyl-2(1H)-quinolinone], the IC50 is 24 nM in assay [1]; over 31600 nM in assay [2] (setting [6]); 470 nM in assay [3]; 2270 nM in assay [4] (setting [7]); 21 nM in assay [5].
In the same order, the values of `NC1CCN(c2cncc(-c3n[nH]c4ccc(-c5cccc(O)c5)cc34)n2)CC1` [Example 78, 3-(3-(6-(4-amino-1-piperidinyl)-2-pyrazinyl)-1H-indazol-5-yl)phenol] are 2 nM, 7970 nM, 27 nM, 885 nM and 1 nM.
